According to PMC3189179, “Rapid Development of New Protein Biosensors Utilizing Peptides Obtained via Phage Display” (PLoS ONE, 2011):

Columns and labels:
[1] = target: T1, ALT (human liver) (Homo sapiens, UniProt P24298); experiment: Biopanning of phage-displayed peptide library over immobilized ALT; assay type: binding; details: 12 phage clones after fifth round of biopanning against ALT
T1 construct: ALT (human liver) and lactate dehydrogenase (LDH) were obtained from Lee Biosolutions, Inc; purchased Lee Biosolutions, Inc. (St. Louis, Missouri); host or cells: human liver
T1 sequence (P24298 2-496 limits assumed): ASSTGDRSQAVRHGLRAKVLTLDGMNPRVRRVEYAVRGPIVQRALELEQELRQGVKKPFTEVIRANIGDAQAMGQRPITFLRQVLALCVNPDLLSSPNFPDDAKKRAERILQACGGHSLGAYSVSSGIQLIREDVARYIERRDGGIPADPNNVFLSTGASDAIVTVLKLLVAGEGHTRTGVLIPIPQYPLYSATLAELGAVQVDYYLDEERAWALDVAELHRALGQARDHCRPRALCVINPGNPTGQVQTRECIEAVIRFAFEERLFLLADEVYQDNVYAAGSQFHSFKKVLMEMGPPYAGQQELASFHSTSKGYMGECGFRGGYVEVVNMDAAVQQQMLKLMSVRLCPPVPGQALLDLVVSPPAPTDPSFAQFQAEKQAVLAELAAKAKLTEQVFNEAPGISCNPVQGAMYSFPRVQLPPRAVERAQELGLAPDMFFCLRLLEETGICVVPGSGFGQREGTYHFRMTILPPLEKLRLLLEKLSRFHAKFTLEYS
Description: ALT (2.6 µg/mL) was dissolved in NaHCO3 buffer (100 mM, pH 8.3) and transferred to the wells of polystyrene microplates. After overnight incubation with mild agitation at 4°C, the well surfaces were coated with ALT. The well surfaces were then blocked with blocking buffer (0.1 M NaHCO3 containing 2% BSA and 0.02% of NaN3) for 1 hr at 4°C, and washed 6 times with TBST (50 mM Tris-HCl pH 7.5, 150 mM NaCl, 0.1% Tween 20) to remove weakly bound ALT. […] Wells were washed 10 times with TBST to remove unbound phage. The bound phage were eluted with 100 µL of 0.2 M glycine-HCl (pH 2.2) and the elution was immediately neutralized with 15 µL Tris-HCl (1 M, pH 9.1) to prevent phage killing. The eluted phage were amplified in E. coli ER2738 and the phage were harvested by precipitation with NaCl/polyethylene glycol (20% (w/v) polyethylene glycol-8000 with 2.5 M NaCl). This biopanning process was repeated for five rounds. The concentration of Tween 20 in the washing step was increased from 0.1% in the first round of panning to 0.3% in the second round of panning and 0.5% in the final three rounds of panning. After each round of panning, the phage were titered using Luria-Bertani (LB) broth plates containing isopropyl β-D-thiogalactopyranoside (IPTG) and X-gal. After the fifth round of selection, twelve blue monocolonies were randomly picked and amplified for DNA sequencing.

[2] = target: T1, ALT (human liver); experiment: ELISA for phage clone binding to immobilized ALT; details: 10^5 to 10^11 pfu, triplicate, 405 nm, 1 hr room temperature
Description: To test whether or not the selected phage clones from the biopanning procedure could bind to ALT, ELISA assays were performed. Microplates were coated with ALT (2.6 µg/mL) overnight at 4°C, blocked with blocking buffer, and washed 6 times with TBST solution (containing 0.1% Tween 20). Varying amounts of amplified phage clones were added to each well and incubated for 1 hr at room temperature. After washing, HRP-conjugated anti-M13 monoclonal antibody (diluted 1∶5000 in blocking buffer) was added and incubated at room temperature for 1 hr. Following incubation and washing again with the same buffer, ABTS and H2O2 (30%, v/v) were added and the absorbance was measured after a 1 hr incubation with mild agitation at 405 nm with a microplate spectrophotometer (Molecular Devices, Sunnyvale, CA).
In order to estimate the apparent dissociation constant for the ALT5-8 clone, further ELISA experiments were performed with extended phage concentrations. The data were fit to a Langmuir isotherm using non-linear regression (SigmaPlot, San Jose, CA) and the Kd,app was determined.

[3] = target: T1, ALT (human liver); experiment: EIS detection of ALT with peptide-modified gold electrode; assay type: binding; details: biosensor made from the peptide coupled with EIS detection
Description: All electrochemical measurements were performed with a µAUTOLAB potentiostat (Type III, FRA2, Metrohm Autolab, Netherlands). A gold wire (dia. 1 mm) sealed in epoxy was used as a working electrode and a platinum mesh was used as a counter electrode. All potentials measured are reported versus a Ag/AgCl reference electrode. Both cyclic voltammetry and EIS measurements were conducted in a solution of 1 mM ferro/ferricyanide in 0.1 M sodium perchlorate.
CV and EIS were performed as previously described. Briefly, the gold electrodes were prepared in 0.1 mM peptide solution for 1 hr, followed by backfilling in 1 mM cysteine solution for 2 hr to obtain a Au-Pep-Cys electrode. The Au-Pep-Cys electrodes were incubated in ALT solution for 1 hr before CV and EIS measurements. After each electrode preparation step, the electrode is removed and placed into solutions of 1 mM ferro/ferricyanide in 0.1 M NaClO4for analysis. Therefore, all the electrochemical measurements were conducted in the ferro/ferricyanide solution which eliminates the effect of any potential viscosity differences between the sample solutions. CV experiments were performed at a potential scan rate of 100 mV/s. Impedance spectra were recorded over a frequency range of 0.1–10^5 Hz. […] The impedance was recorded and a Nyquist plot was obtained. […]

[4] = target: T1, ALT (human liver); experiment: QCM binding of ALT to immobilized peptide; details: ALT as compared to BSA and SA, 10 µg/mL each
Excerpt: All reagents used were analytical grade or higher unless otherwise stated. Escherichia coli strain ER2738, a host for M13 phage, and a polyvalent M13 phage display kit (Ph.D.-12) which contained random 12-mer peptides were obtained from New England Biolabs (Ipswich, MA). ALT (human liver) and lactate dehydrogenase (LDH) were obtained from Lee Biosolutions, Inc. (St. Louis, Missouri). Horseradish peroxidase (HRP) conjugated anti-M13 monoclonal antibody was from GE Healthcare (Piscataway, NJ). Tween 20, 2,2′-Azino-bis(3-ethylbenzothiazoline-6-sulfonic acid) diammonium salt (ABTS), streptavidin (SA) from Streptomyces avidinii, bovine serum albumin (BSA), L-cysteine hydrochloride (98%) and all other chemicals were purchased from Sigma-Aldrich (St. Louis, MO). Polystyrene microplates were from Pierce Biotechnology (Rockford, IL). The ALT5-8 peptide modified with a C-terminal cysteine (sequence: […]) was synthesized (>90% purity) by Genscript (Piscataway, NJ). Quartz crystals (AT-cut, 5 MHz) with Au deposited on both sides were obtained from Inficon (East Syracuse, New York). Buffer solutions (pH = 7.3) containing 0.01 M sodium phosphate and 0.1 M NaCl were used to make all protein (1–10 µg/mL) and peptide (0.1 mM) solutions for the QCM and EIS measurements. All solutions were prepared using Milli-Q water. […]

[5] = target: T1, ALT (human liver); experiment: Coupled enzyme assay (ALT/LDH, NADH depletion): peptide inhibition of ALT, bi-bi ping-pong fit with competitive inhibitor; assay type: biochemical
Description: ALT enzyme kinetics were measured to determine the impact of the ALT5-8 peptide on the activity of the enzyme. Kinetic experiments were performed in a coupled assay where the pyruvate generated by ALT was reduced to lactate by LDH with the concomitant oxidation of NADH. The depletion of NADH was monitored by following its absorbance at 340 nm in UV-transparent microplates. […] The reactions were initiated by the addition of 330 U/L ALT and all measurements were made in triplicate. All stock solutions were prepared in 100 mM Tris-HCl buffer (pH 7.8), and all kinetic trials were conducted 300 µL at 37 °C. […] Free ALT5-8 peptide inhibitor (I) was added to the reactions at concentrations from 0–0.25 µM.

[6] = target: T1, ALT (human liver); experiment: Uninhibited ALT enzyme kinetics (coupled ALT/LDH assay); assay type: biochemical; details: absence of peptide, pH 7.8, 37 °C, triplicate, bi-bi ping-pong fit (Eqn. 1)
Description: ALT enzyme kinetics were measured to determine the impact of the ALT5-8 peptide on the activity of the enzyme. Kinetic experiments were performed in a coupled assay where the pyruvate generated by ALT was reduced to lactate by LDH with the concomitant oxidation of NADH. The depletion of NADH was monitored by following its absorbance at 340 nm in UV-transparent microplates. […] Initial concentrations of pyridoxal 5′-phosphate, NADH, and LDH were 0.1 mM, 0.25 mM and 47 U/L respectively. The reactions were initiated by the addition of 330 U/L ALT and all measurements were made in triplicate. All stock solutions were prepared in 100 mM Tris-HCl buffer (pH 7.8), and all kinetic trials were conducted 300 µL at 37 °C.

[7] = substrate: C[C@H](N)C(=O)O; experiment: purified protein, by the assay type; details: other: substrate of ALT, absence of peptide, pH 7.8, 37 °C, triplicate, bi-bi ping-pong fit (Eqn. 1)
[8] = target: T2, alanine aminotransferase (Homo sapiens, UniProt P24298); experiment: phage ELISA
T2 chain: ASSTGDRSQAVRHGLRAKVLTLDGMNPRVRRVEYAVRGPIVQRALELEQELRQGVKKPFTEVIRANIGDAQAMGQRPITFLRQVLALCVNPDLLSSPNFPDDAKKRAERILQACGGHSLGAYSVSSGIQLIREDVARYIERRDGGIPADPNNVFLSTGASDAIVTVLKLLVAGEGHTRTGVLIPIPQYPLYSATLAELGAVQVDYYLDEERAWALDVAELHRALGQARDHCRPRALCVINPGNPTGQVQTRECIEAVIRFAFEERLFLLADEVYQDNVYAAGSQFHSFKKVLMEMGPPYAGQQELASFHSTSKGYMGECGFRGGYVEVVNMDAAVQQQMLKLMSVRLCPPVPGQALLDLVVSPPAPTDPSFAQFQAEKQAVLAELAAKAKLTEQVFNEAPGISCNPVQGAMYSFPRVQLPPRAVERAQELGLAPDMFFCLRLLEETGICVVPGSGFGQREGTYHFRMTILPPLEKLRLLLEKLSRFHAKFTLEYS

[9] = target: T2, alanine aminotransferase; experiment: enzyme inhibition kinetics
[10] = target: T2, alanine aminotransferase; experiment: QCM

LETEWDSLWYAP [ALT5-9]
Frequency of sequence among sequenced clones [1]: 1/12 | affinity of phage clone for immobilized ALT (in words) [2]: low affinity for ALT similar to that of the M13 control phage

SNNLYPQRAVST [ALT4-3]
Frequency of sequence among sequenced clones [1]: 1/12 | affinity of phage clone for immobilized ALT (in words) [2]: low affinity for ALT similar to that of the M13 control phage

WHWRNPDFWYLK [ALT5-8, 12-mer peptide selected by M13 phage display over ALT; tested on phage and as free peptide]
limit of detection (LOD), EIS [3]: 0.092 µg/mL | selectivity (in words) [4]: selective for ALT as compared to BSA and SA | mode of inhibition ([5]; Lineweaver-Burk plots, with respect to alanine): competitive inhibitor | residual enzyme activity with peptide (in words) ([5]; peptide to protein ratio 2∶1): the enzyme was still quite active | Frequency of sequence among sequenced clones [1]: 10/12 | affinity of phage clone for immobilized ALT (in words) [2]: dose-dependent affinity for the ALT protein

α-ketoglutarate [reference compound]
Km ([6]; substrate of ALT, read-out: Michaelis constant KM): 90 ± 30 µM

B1: ALT (human liver) (Homo sapiens) (protein)
chain: ASSTGDRSQAVRHGLRAKVLTLDGMNPRVRRVEYAVRGPIVQRALELEQELRQGVKKPFTEVIRANIGDAQAMGQRPITFLRQVLALCVNPDLLSSPNFPDDAKKRAERILQACGGHSLGAYSVSSGIQLIREDVARYIERRDGGIPADPNNVFLSTGASDAIVTVLKLLVAGEGHTRTGVLIPIPQYPLYSATLAELGAVQVDYYLDEERAWALDVAELHRALGQARDHCRPRALCVINPGNPTGQVQTRECIEAVIRFAFEERLFLLADEVYQDNVYAAGSQFHSFKKVLMEMGPPYAGQQELASFHSTSKGYMGECGFRGGYVEVVNMDAAVQQQMLKLMSVRLCPPVPGQALLDLVVSPPAPTDPSFAQFQAEKQAVLAELAAKAKLTEQVFNEAPGISCNPVQGAMYSFPRVQLPPRAVERAQELGLAPDMFFCLRLLEETGICVVPGSGFGQREGTYHFRMTILPPLEKLRLLLEKLSRFHAKFTLEYS
kcat [6]: 5.8 ± 0.2 s⁻¹ | Km [7]: 8000 ± 900 µM

B2: ALT5-8 peptide (phage-displayed) (peptide)
chain: WHWRNPDFWYLK
modifications: displayed on M13 phage
Kd [8]: 85 nM

B3: ALT5-8 peptide (peptide)
chain: WHWRNPDFWYLK
Ki [9]: 71 nM

B4: ALT5-8 peptide (C-terminal Cys) (peptide)
chain: WHWRNPDFWYLKC
modifications: immobilized on gold via C-terminal cysteine
Kd [10]: 20.1 nM
